From US20120309796A1, “BENZOCYCLOHEPTENE ACETIC ACIDS” (priority 2011, published 2012) come the findings set out here.

SMILES strings stand for the structures.

The test addresses T1, human CRTH2 (Homo sapiens, UniProt Q9Y5Y4).
T1 sequence (Q9Y5Y4 1-395): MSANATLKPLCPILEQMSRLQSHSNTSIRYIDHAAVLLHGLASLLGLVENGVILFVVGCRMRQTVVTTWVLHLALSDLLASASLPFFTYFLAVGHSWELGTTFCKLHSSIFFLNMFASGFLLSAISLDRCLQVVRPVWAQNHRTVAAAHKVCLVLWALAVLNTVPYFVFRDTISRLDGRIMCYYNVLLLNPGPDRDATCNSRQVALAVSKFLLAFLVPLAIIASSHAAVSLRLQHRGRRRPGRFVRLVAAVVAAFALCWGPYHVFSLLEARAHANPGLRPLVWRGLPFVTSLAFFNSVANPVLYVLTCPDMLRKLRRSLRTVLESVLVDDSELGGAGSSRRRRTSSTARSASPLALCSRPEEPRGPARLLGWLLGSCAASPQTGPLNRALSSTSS
In words: Human CRTH2 Receptor Binding Assay (whole cell, [3H]ramatroban competition). More on the design: two mammalian expression vectors that harbored human CRTH2 and G-alpha16 cDNAs; expressed in transfected cells. As to conditions: CHO-K1 cells expressing human CRTH2 and G-alpha16; 20 nM [3H]ramatroban; 1 hour, room temperature. Summed up: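 CHO-K1 cells stably co-expressing human CRTH2 and G-alpha16 (1.5×10^5/reaction) incubated 1 h at room temperature with 20 nM [3H]ramatroban in PBS, 10 mM MgCl2, 0.06% BSA. Non-specific binding defined with 10 μM 15(R)-15-methyl PGD2; IC50 from 7-point inhibition of specific binding, 4-parameter logistic fit.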

`O=C(O)COc1cccc2c1CCCCC2NS(=O)(=O)c1cc(C(F)(F)F)cc(C(F)(F)F)c1` (centres unmarked) [Example 1, [5-(3,5-Bis-trifluoromethyl-benzenesulfonylamino)-6,7,8,9-tetrahydro-5H-benzocyclohepten-1-yloxy]-acetic acid] registered an IC50 of 8.9 nM.
As for `O=C(O)COc1cccc2c1CCCCC2NS(=O)(=O)c1cc(C(F)(F)F)cc(C(F)(F)F)c1` (single isomer, unassigned) [Example 46, [5-(3,5-Bis-trifluoromethyl-benzenesulfonylamino)-6,7,8,9-tetrahydro-5H-benzocyclohepten-1-yloxy]-acetic acid], the half-maximal inhibitory concentration (IC50) stood at 24.5 nM.

By IC50 is commonly meant the midpoint of a concentration-inhibition curve. A low value points to higher potency.
